According to patent US11124788B2, “Asx-specific protein ligase” (NANYANG TECHNOLOGICAL UNIVERSITY, priority 2014, dated 2021):
Read-outs that look alike come from different tables or passages of the source. Residues, ends and D or L forms follow the SMILES beside them. *: point of attachment. AMC = Cc1cc(=O)oc2cc(N*)ccc12; Cbz = O=C(OCc1ccccc1)*

Columns and labels:
jack bean legumain = target: T1, jack bean legumain (Canavalia ensiformis, UniProt P49046); experiment: Hydrolysis of Z-AAN-AMC by jack bean legumain (positive control); assay type: biochemical; details: same experimental conditions, 30 h
T1 construct: purchased Takara Bio (Japan)
T1 sequence (P49046 36-475): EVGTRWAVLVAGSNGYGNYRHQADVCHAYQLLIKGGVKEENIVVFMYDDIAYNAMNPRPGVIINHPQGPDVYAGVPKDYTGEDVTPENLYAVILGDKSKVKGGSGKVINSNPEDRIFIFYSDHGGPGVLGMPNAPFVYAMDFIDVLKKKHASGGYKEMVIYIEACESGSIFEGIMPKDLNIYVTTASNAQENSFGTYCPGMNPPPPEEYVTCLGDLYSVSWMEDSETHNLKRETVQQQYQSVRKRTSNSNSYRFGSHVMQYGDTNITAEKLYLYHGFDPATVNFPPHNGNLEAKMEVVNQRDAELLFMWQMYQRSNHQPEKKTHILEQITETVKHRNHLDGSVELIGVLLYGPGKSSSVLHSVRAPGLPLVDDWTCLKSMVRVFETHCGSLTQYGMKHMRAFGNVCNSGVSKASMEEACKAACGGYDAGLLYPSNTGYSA

butelase 1 [1] = experiment: Hydrolysis of Z-AAN-AMC by butelase 1 (asparaginyl endopeptidase activity); assay type: biochemical, Clitoria ternatea; details: 50 mM Z-AAN-AMC, 30 h
butelase 1 [2] = experiment: Michaelis-Menten kinetics of butelase 1 as a peptide cyclase; assay type: biochemical, Clitoria ternatea
butelase 1 [3] = experiment: In vitro cyclization of peptide/protein substrates by butelase 1 (HPLC/MS yield); assay type: biochemical, Clitoria ternatea
[4] = Storage stability of purified butelase 1; details: 30 days at 4° C.
[5] = Solubility of butelase 1 in water
[6] = butelase 1 cyclization, 37° C., 0.125 μM enzyme, 12 min (SA-kB1-NHV: 5 nM, 6 min)

Molecule: Cc1cc(=O)oc2cc(NC(=O)[C@H](CC(N)=O)NC(=O)[C@H](C)NC(=O)[C@H](C)NC(=O)OCc3ccccc3)ccc12 [Z-AAN-AMC, N-carbobenzyloxy-Ala-Ala-Asn-7-amido-4-methylcoumarin] (Cbz-Ala-Ala-Asn-{AMC})
- Hydrolysis of Z-AAN-AMC (jack bean legumain): completely hydrolyzed
- Hydrolyzed product formed (RP-HPLC) (butelase 1 [1]): < 3%

Molecule: Apelin
- Km (butelase 1 [2]): 6.7 ± 1.4 µM
- kcat (butelase 1 [2]): 5.78 ± 0.25 s⁻¹

Molecule: Neuromedin ∪
- Km (butelase 1 [2]): 8.7 ± 2.1 µM
- kcat (butelase 1 [2]): 5.78 ± 0.36 s⁻¹

Molecule: SFTI-NHV: SEQ ID NO:135, GRCTKSIPPICFPNHV; 16-residue linear substrate
- Cyclization efficiency, SFTI-NHV compared with SFTI-DHV (butelase 1 [3]): significantly more efficient
- Km (butelase 1 [2]; [6]): 51 ± 4 µM
- kcat (butelase 1 [2]; [6]): 0.6 ± 0.02 s⁻¹
- kcat (butelase 1 [2]; butelase 1 cyclization, 37° C., 0.125 μM enzyme, 12 min (SA-kB1-NHV: 5 nM, 6 min), listed as SFT1-NHV): 0.6 ± 0.02 s⁻¹

B1: butelase 1: Asx-specific peptide ligase/cyclase isolated from Clitoria ternatea, amino acid sequence SEQ ID NO:1 (protein, listed as Clitoria ternatea)
chain: VEGTRWAVLVAGSKGYVNYRHQADVCHAYQILKKGGLKDENIIVFMYDDIAYNESNPHPGVIINHPYGSDVYKGVPKDYVGEDINPPNFYAVLLANKSALTGTGSGKVLDSGPNDHVFIYYTDHGGAGVLGMPSKPYIAASDLNDVLKKKHASGTYKSIVFYVESCESGSMFDGLLPEDHNIYVMGASDTGESSWVTYCPLQHPSPPPEYDVCVGDLFSVAWLEDCDVHNLQTETFQQQYEVVKNKTIVALIEDGTHVVQYGDVGLSKQTLFVYMGTDPANDNNTFTDKNSLGTPRKAVSQRDADLIHYWEKYRRAPEGSSRKAEAKKQLREVMAHRMHIDN
- Stability of enzyme activity [4]: minimal loss of activity
- Catalytic rate relative to sortase A (butelase 1 [3]; GFP as a model protein): ~10,000
- Catalytic activities (butelase 1 [2]; highest value stated in the summary): ≤ 542,000 M^−s^−1
- Solubility in water (concentration achieved) [5]: 10000 µg/mL
